Measurements published in patent publication US3963777A, “1-Polyhydroxy alkyl-1,4-benzodiazepin-2-ones” (Hoffmann-La Roche Inc., priority 1975, dated 1976).

Legend:
mice = experiment: standard rotating rod test (sedative and muscle-relaxant activity); assay type: in vivo; conditions: p.o.
Experimental: In this test, the ability of mice to achieve a coordinated motor performance is investigated. After peroral administration of the test substance, the mice are placed upon a horizontal slowly rotating rod and the time they remain on the rod is recorded. The ED50 is that dose which reduces the holding on period of the mice by 50% as compared to the holding on period prior to the administration of the test substance.

[1] = standard pentamethylenetetrazole (pentetrazole) test for anticonvulsant activity, method of Orloff; assay type: in vivo; conditions: p.o.
Excerpt: The compounds of formula I above and their pharmaceutically acceptable acid addition salts are useful as sedative muscle relaxant and anti-convulsant agents.

[2] = LD50 (p.o.), acute toxicity; conditions: in vivo, po

O=C1CN=C(c2ccccc2F)c2cc(Cl)ccc2N1CC(O)CO (stereo not drawn) [Compound A, 7-chloro-1-(2,3-dihydroxypropyl)-5-(2-fluorophenyl)-1,3-dihydro-2H-1,4-benzodiazepin-2-one]
ED50 (dose which reduces the holding on period of the mice by 50% as compared to the holding on period prior to administration) (mice): 5.1 mg/kg | APR 2.0 (dosage of an anticonvulsant which causes a two-fold pentetrazole consumption in contrast to an untreated control group) [1]: 5.6 mg/kg | LD50 [2]: 1250 to 2500 mg/kg
